# Assays:
# SU-DHL-10 = test: CellTiter-Glo cell viability, SU-DHL-10; type: cell-based; details: Homo sapiens, SU-DHL10
# Procedure: Human DLBCL cell lines SU-DHL-4 (#ACC 495) and SU-DHL-10 (#ACC 576) were obtained from DSMZ (German Collection of Microorganisms and Cell Cultures). The supplier used PCR-based DNA profiling of polymorphic short tandem repeats for authentication and Mycoplasma testing prior to shipment. Cells were cultured in suspension at 37°C in a humidified atmosphere containing 5% CO2. CDK9 inhibitors KB-0742 (MedChemExpress, #HY-137478A), enitociclib, and atuveciclib ([…] Pharma, Inc.) were used. A subset of 35 lymphoma cell lines is from a 500-cell line panel where the effect of enitociclib on cell viability using CellTiter-Glo luminescent cell viability was determined (OmniScreen, CrownBioscience). Genetic status and gene expression level for MYC and MCL1 was obtained from CrownBioscience.
# [1] = system: Myc and Mcl-1 protein in SU-DHL-4 cells; test: In vitro washout, Myc and Mcl-1 protein Western blot, SU-DHL-4; type: cell-based, human; details: 0.25 µmol/L enitociclib, atuveciclib (1 µmol/L)
# Procedure: Evaluation of the pharmacodynamic extent and duration of CDK9 inhibition were performed in vitro using the human DLBCL cell lines SU-DHL-4 and SU-DHL-10, harboring MYC amplification and MYC overexpression with P57T mutation, respectively. Cells were seeded 18 hours prior to treatment for 4 hours with one of three CDK9 inhibitors, enitociclib (0.25 and1 µmol/L), atuveciclib (1 µmol/L) or KB-0742 (1 µmol/L), cells were washed, and incubation continued until 48 hours posttreatment. Samples were collected before treatment (−4), immediately after treatment (0), and at 1, 2, 4, 8, 12, 16, 24, and 48 hours after washout for RNA sequencing (RNA-seq), qPCR, and Western blotting analyses.
# The levels of p-Ser2, p-Ser5 and total RNA polymerase II, Myc, Mcl-1, cleaved PARP (cPARP), and cleaved Caspase 3 were assessed by Western blotting and quantified near-infrared detection and background corrected quantification of fluorescence intensity on an Odyssey Imaging System with IRDye secondary antibodies (LI-COR Biosciences). For quantification, the protein levels were normalized to GAPDH or HSP90, expressed as a ratio to DMSO or vehicle control at matched timepoints. The normalized relative protein levels of p-Ser2 were used for a treatment effect comparison by performing an ANOVA using PROC MIXED in SAS. The ANOVA model included treatment, timepoints and their interactions as fixed effects. […]
# [2] = system: cleaved PARP in SU-DHL-10 tumors; test: Pharmacodynamics in SU-DHL-10 xenograft tumors, cleaved PARP; type: in vivo, C.B-17 SCID mice; details: single dose
# Procedure: The levels of p-Ser2, p-Ser5 and total RNA polymerase II, Myc, Mcl-1, cleaved PARP (cPARP), and cleaved Caspase 3 were assessed by Western blotting and quantified near-infrared detection and background corrected quantification of fluorescence intensity on an Odyssey Imaging System with IRDye secondary antibodies (LI-COR Biosciences). For quantification, the protein levels were normalized to GAPDH or HSP90, expressed as a ratio to DMSO or vehicle control at matched timepoints. The normalized relative protein levels of p-Ser2 were used for a treatment effect comparison by performing an ANOVA using PROC MIXED in SAS. The ANOVA model included treatment, timepoints and their interactions as fixed effects. The least square means (LSM), differences between the LSMs and associated P values were generated. The following primary antibodies were used: Rpb1 NTD (D8L4Y) rabbit antibody [Cell Signaling Technology (CST), #14958], anti-RNA polymerase II subunit B1 (phospho CTD Ser-2, clone 3E10) rat antibody (Merck, 04-1571-I), recombinant anti-c-MYC rabbit antibody (Y69; Abcam, #ab32072), MCL1 (D5V5L) rabbit antibody (CST, #39224), cleaved-PARP (Asp214) (E2T4K) mouse antibody (CST, #32563), HSP90 (C45G5) rabbit antibody (CST, #4877), and GAPDH mouse antibody (Zytomed Systems, #ZYT-RGM2-6C5). […]
# [3] = Body weight of treated xenograft mice; type: in vivo, C.B-17 SCID mice; details: 15 mg/kg i.v. once weekly
# Procedure: A total of 10 × 10^6 SU-DHL-10 cells were inoculated subcutaneously into 6–8 weeks old female C.B-17 SCID mice (Iffa Credo, Brussels). The mice were randomized to treatment groups at a tumor volume of 63–104 mm^3 and treated (intravenously, once weekly) with 10 mg/kg enitociclib (60% PEG400, 10% ethanol, water), 15 mg/kg enitociclib (30% PEG400, 10% ethanol, water), or corresponding vehicle treatments. Mice were around 10–12 weeks of age at the start of study. All animal experiments were performed under the national animal welfare laws of Germany and approved by the local authorities.
# [4] = system: PHF23, TP53RK, ZFP36 and JUNB mRNA in blood; test: RNA-seq DEGs in blood of patients (PHF23, TP53RK, ZFP36, JUNB); type: in vivo, human
# Procedure: Total RNA was extracted from blood of patients and cell lines using RNeasy Plus Mini Kit (QIAGEN, #74136) and cDNA prepared with the Maxima First Strand cDNA Synthesis Kit for RT-PCR (Thermo Fisher Scientific, K1642) according to manufacturer's instructions. The integrity of purified total RNA was evaluated using an Agilent 2100 Bioanalyzer system and RNA 6000 Nano Kit (Agilent, #5067-1511). Differential gene expression analysis was performed (Fios Genomics) from RNA-seq data (Discovery Life Sciences). MYC and MCL1 mRNA levels were measured by qPCR in vitro and in vivo, using a Taqman qPCR system (Thermo Fisher Scientific), TaqMan Fast Universal PCR Master Mix (2X) no AmpErase (#4352042) and TaqMan probes for MYC (Hs00153408_m1) and MCL1 (Hs03043899_m1). RNA-seq data were analyzed using DESeq2 ([35]).
# Fifteen patients with refractory or relapsed DH-DLBCL or other MYC+ NHL were treated with enitociclib (30 mg, 21-day cycle, once weekly x3) as a 30-minute intravenous infusion on study days 1, 8, and 15 (NCT02635672). Longitudinal gene expression levels were analyzed by RNA-seq, and enitociclib plasma concentrations were measured using LC/MS-MS. The clinical study protocol was approved by the Institutional Review Board of participating institutions and complied with the Declaration of Helsinki, current Good Clinical Practice guidelines, and local laws and regulations. Written informed consent was provided by all participants prior to the initiation of any study-specific procedure.
# RNA-seq data generated from the analysis of two cell lines treated with the three CDK9 inhibitors was analyzed to investigate the differences in gene expression levels between various posttreatment timepoints and the pretreatment samples. Quality control assessment and exploratory data analysis by principal component analysis (PCA) were done on raw counts and on normalized count data. Normalization of RNA-seq count data was done using trimmed mean of M-values normalization and transformed with voom, resulting in log2 counts per million with associated precision weights. […] Significance values (Padj) were adjusted for multiple testing, by controlling the FDR using the Benjamini–Hochberg procedure. […] RNA-seq data generated from blood samples taken from patients before and after their first dose (C1D1) or after multiple doses, before and after their third dose (C1D15) were analyzed and normalized using the same pipeline as cell lines for comparisons.
# [5] = DH-DLBCL and other MYC+ NHL, after C1D1 and C1D15
smiles,measurement,setting,value
COc1cc(F)ccc1-c1cc(Nc2cc(CS(C)(=N)=O)ccn2)ncc1F (stereo not drawn) [enitociclib],IC50,SU-DHL-10,74 nM
same,sustained Myc and Mcl-1 protein depletion for 48 hours (in words),[1],this was achieved
same,cleaved PARP in tumors (in words),[2],increase in cleaved PARP
same,maximum body weight change,[3],−12.5%
same,PHF23 mRNA fold change from predose,[4]; [5],approximately –1 fold change
same,TP53RK mRNA fold change from predose,[4]; [5],–2 fold change
same,Downregulation of ZFP36 and JUNB mRNA levels,"[4]; other MYC+ NHL (n = 3), after C1D1",approximately −2 fold change
same,Downregulation of ZFP36 and JUNB mRNA levels,"[4]; other MYC+ NHL (n = 3), after C1D15 (decreased toward)",~−1
same,Downregulation of ZFP36 and JUNB mRNA levels,"[4]; patients with DH-DLBCL, after C1D1 and C1D15",> −2

# Source: paper PMC10634346 (Cancer Research Communications, 2023)
